Assay results as given in US8039514B2, “Sulfonamide compounds and use thereof” (Asahi Kasei Pharma Corporation, priority 2008, dated 2011).

Molecular target: T1, human calcium-sensing receptor (CaSR) (Homo sapiens, UniProt P41180)
T1 construct: expressed in transfected cells
T1 sequence (P41180 20-1078): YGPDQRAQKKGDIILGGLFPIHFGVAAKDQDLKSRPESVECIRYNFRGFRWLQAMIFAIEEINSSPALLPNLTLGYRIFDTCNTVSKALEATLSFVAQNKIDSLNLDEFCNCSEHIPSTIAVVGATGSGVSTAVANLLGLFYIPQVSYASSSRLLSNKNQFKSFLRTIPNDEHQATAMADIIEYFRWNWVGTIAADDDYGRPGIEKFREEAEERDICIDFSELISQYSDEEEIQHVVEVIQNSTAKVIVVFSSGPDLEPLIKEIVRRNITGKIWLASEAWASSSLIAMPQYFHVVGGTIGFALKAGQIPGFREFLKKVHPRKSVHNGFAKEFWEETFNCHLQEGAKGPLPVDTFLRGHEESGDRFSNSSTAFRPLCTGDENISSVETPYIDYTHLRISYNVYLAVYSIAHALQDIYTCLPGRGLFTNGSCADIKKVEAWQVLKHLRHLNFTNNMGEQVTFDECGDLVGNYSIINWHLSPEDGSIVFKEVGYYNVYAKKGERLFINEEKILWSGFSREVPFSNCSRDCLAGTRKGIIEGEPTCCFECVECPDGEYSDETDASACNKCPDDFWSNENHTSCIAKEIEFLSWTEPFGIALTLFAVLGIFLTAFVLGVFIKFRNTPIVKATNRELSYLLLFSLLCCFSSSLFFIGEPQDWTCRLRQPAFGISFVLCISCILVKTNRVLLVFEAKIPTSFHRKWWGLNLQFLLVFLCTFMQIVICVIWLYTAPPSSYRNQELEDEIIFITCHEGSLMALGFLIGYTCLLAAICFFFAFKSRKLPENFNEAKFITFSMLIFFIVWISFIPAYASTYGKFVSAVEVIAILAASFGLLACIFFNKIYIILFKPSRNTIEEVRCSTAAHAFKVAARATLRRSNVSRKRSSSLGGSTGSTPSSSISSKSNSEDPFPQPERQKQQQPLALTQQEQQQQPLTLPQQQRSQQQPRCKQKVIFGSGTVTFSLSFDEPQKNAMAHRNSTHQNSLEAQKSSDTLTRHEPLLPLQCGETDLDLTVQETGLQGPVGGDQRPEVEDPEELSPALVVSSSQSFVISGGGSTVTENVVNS
Test: intracellular Ca assay, CaSR antagonist activity in HEK293/hCaSR cells
Assay type: cell-based
Settings: Fura2-AM, inhibition of response to calcium chloride ligand solution, read-out: IC50 values according to the intracellular Ca assay (CaSR antagonist activity)
Procedure, shortened: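 HEK293/hCaSR cells were loaded with Fura2-AM and pre-incubated with compound for 160 s at 37° C in HEPES buffer (pH 7.4, 0.8 mM CaCl2), then challenged with calcium ligand solution. Read-out was the peak 340/380 nm fluorescence ratio; inhibition is relative to no-compound (0%) and no-calcium-ligand (100%) controls.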

SMILES | IC50
CCc1cc(-c2ccc(CCC(=O)O)cc2)ccc1S(=O)(=O)N(C)C[C@H](O)CNC(C)(C)CCCc1ccccc1F [Exp. 9-89, (R)-3-(3′-ethyl-4′-(N-(3-(5-(2-fluorophenyl)-2-methylpentan-2-ylamino)-2-hydroxypropyl)-N-methylsulfamoyl)biphenyl-4-yl)propionic acid] | ≤ 300 nM
Cc1cc(-c2cccc(S(=O)(=O)N(C)C[C@H](O)CNC(C)(C)CC3Cc4ccccc4C3)c2)ccc1C(=O)O [Exp. 3-52, (R)-3′-(N-(3-(1-(2,3-dihydro-1H-inden-2-yl)-2-methylpropan-2-ylamino)-2-hydroxypropyl)-N-methylsulfamoyl)-3-methylbiphenyl-4-carboxylic acid] | 300 to 1000 nM
CN(CC(O)CNC(C)(C)CC1Cc2ccccc2C1)S(=O)(=O)c1cc(C=CC(=O)O)cc(C(F)(F)F)c1 (stereo not drawn) [Exp. 11-1, 3-(3-(N-(3-(1-(2,3-dihydro-1H-inden-2-yl)-2-methylpropan-2-ylamino)-2-hydroxypropyl)-N-methylsulfamoyl)-5-(trifluoromethyl)phenyl)acrylic acid] | ≤ 300 nM
CN(C[C@H](O)CNC(C)(C)Cc1ccc2ccccc2c1)S(=O)(=O)c1cccc(-c2ccc(C(=O)O)c(F)c2)c1 [Exp. 3-9, (R)-3-fluoro-3′-(N-(2-hydroxy-3-(2-methyl-1-(naphthalen-2-yl)propan-2-ylamino)propyl)-N-methylsulfamoyl)biphenyl-4-carboxylic acid] | 300 to 1000 nM
CC(C)(CC1Cc2ccccc2C1)NC[C@@H](O)CNS(=O)(=O)c1cccc(-c2cccc(C(=O)O)c2)c1 [Exp. 14-2, (R)-3′-(N-(3-(1-(2,3-dihydro-1H-inden-2-yl)-2-methylpropan-2-ylamino)-2-hydroxypropyl)sulfamoyl)biphenyl-3-carboxylic acid] | ≤ 300 nM
CN(C[C@H](O)CNC(C)(C)Cc1ccc2ccccc2c1)S(=O)(=O)c1cccc(-c2cccc(C(=O)O)c2)c1 [Exp. 3-5, (R)-3′-(N-(2-hydroxy-3-(2-methyl-1-(naphthalen-2-yl)propan-2-ylamino)propyl)-N-methylsulfamoyl)biphenyl-3-carboxylic acid] | ≤ 300 nM
CN(C[C@H](O)CNC(C)(C)Cc1ccc2ccccc2c1)S(=O)(=O)c1ccccc1-c1cccc(C=CC(=O)O)c1 [Exp. 3-1, (R)-3-(2′-(N-(2-hydroxy-3-(2-methyl-1-(naphthalen-2-yl)propan-2-ylamino)propyl)-N-methylsulfamoyl)biphenyl-3-yl)acrylic acid] | 300 to 1000 nM
Cc1cc(-c2ccccc2CS(=O)(=O)N(C)C[C@H](O)CNC(C)(C)Cc2ccc3ccccc3c2)ccc1C(=O)O [Exp. 3-81, (R)-2′-((N-(2-hydroxy-3-(2-methyl-1-(naphthalen-2-yl)propan-2-ylamino)propyl)-N-methylsulfamoyl)methyl)-3-methylbiphenyl-4-carboxylic acid] | 300 to 1000 nM
CN(C[C@H](O)CNC(C)(C)Cc1ccc2ccccc2c1)S(=O)(=O)c1cccc(-c2ccc(C(=O)O)s2)c1 [Exp. 3-26, (R)-5-(3-(N-(2-hydroxy-3-(2-methyl-1-(naphthalen-2-yl)propan-2-ylamino)propyl)-N-methylsulfamoyl)phenyl)thiophen-2-carboxylic acid] | 300 to 1000 nM
CN(C[C@H](O)CNC(C)(C)Cc1ccc2ccccc2c1)S(=O)(=O)Cc1ccc(-c2cccc(C=CC(=O)O)c2)cc1 [Exp. 3-91, (R)-3-(4′-((N-(2-hydroxy-3-(2-methyl-1-(naphthalen-2-yl)propan-2-ylamino)propyl)-N-methylsulfamoyl)methyl)biphenyl-3-yl)acrylic acid] | 1000 to 3000 nM
CN(C[C@H](O)CNC(C)(C)Cc1ccc2ccccc2c1)S(=O)(=O)c1cccc(-c2ccc(C(=O)NCCC(=O)O)cc2)c1 [Exp. 3-27, (R)-3-(3′-(N-(2-hydroxy-3-(2-methyl-1-(naphthalen-2-yl)propan-2-ylamino)propyl)-N-methylsulfamoyl)biphenyl-4-ylcarboxamide)propionic acid] | 300 to 1000 nM
CN(C[C@H](O)CNC(C)(C)Cc1ccc2ccccc2c1)S(=O)(=O)c1ccc(-c2ccccc2C=CC(=O)O)cc1 [Exp. 3-44, (R)-3-(4′-(N-(2-hydroxy-3-(2-methyl-1-(naphthalen-2-yl)propan-2-ylamino)propyl)-N-methylsulfamoyl)biphenyl-2-yl)acrylic acid] | 1000 to 3000 nM

The remaining lines, values ahead:

IC50 | SMILES
300 to 1000 nM | CN(C[C@H](O)CNC(C)(C)Cc1ccc2ccccc2c1)S(=O)(=O)c1cccc(-c2ccc(C(=O)O)c(Cl)c2)c1 [Exp. 3-11, (R)-3-chloro-3′-(N-(2-hydroxy-3-(2-methyl-1-(naphthalen-2-yl)propan-2-ylamino)propyl)-N-methylsulfamoyl)biphenyl-4-carboxylic acid]
300 to 1000 nM | CN(C[C@H](O)CNC(C)(C)CC1Cc2ccccc2C1)S(=O)(=O)c1cccc(-c2ccc(C=CC(=O)O)cc2)c1 [Exp. 3-56, (R)-3-(3′-(N-(3-(1-(2,3-dihydro-1H-inden-2-yl)-2-methylpropan-2-ylamino)-2-hydroxypropyl)-N-methylsulfamoyl)biphenyl-4-yl)acrylic acid]
≤ 300 nM | CCc1cc(-c2ccc(CCC(=O)O)cc2)ccc1S(=O)(=O)N(C)C[C@H](O)CNC(C)(C)CCCc1cccc(F)c1 [Exp. 9-90, (R)-3-(3′-ethyl-4′-(N-(3-(5-(3-fluorophenyl)-2-methylpentan-2-ylamino)-2-hydroxypropyl)-N-methylsulfamoyl)biphenyl-4-yl)propionic acid]
≤ 300 nM | CCc1cc(-c2c(F)cccc2CCC(=O)O)ccc1S(=O)(=O)N(C)C[C@H](O)CNC(C)(C)CCCc1ccsc1 [Exp. 8-24, (R)-3-(3′-ethyl-6-fluoro-4′-(N-(2-hydroxy-3-(2-methyl-5-(thiophen-3-yl)pentan-2-ylamino)propyl)-N-methylsulfamoyl)biphenyl-2-yl)propionic acid]
300 to 1000 nM | CN(C[C@H](O)CNC(C)(C)Cc1ccc2ccccc2c1)S(=O)(=O)c1cccc(-c2cc(N)cc(C(=O)O)c2)c1 [Exp. 3-17, (R)-5-amino-3′-(N-(2-hydroxy-3-(2-methyl-1-(naphthalen-2-yl)propan-2-ylamino)propyl)-N-methylsulfamoyl)biphenyl-3-carboxylic acid]
≤ 300 nM | CN(C[C@H](O)CNC(C)(C)CC1Cc2ccccc2C1)S(=O)(=O)c1ccc(-c2ccc(C(=O)O)nc2)c(C(F)(F)F)c1 [Exp. 3-231, (R)-5-(4-(N-(3-(1-(2,3-dihydro-1H-inden-2-yl)-2-methylpropan-2-ylamino)-2-hydroxypropyl)-N-methylsulfamoyl)-2-(trifluoromethyl)phenyl)picolinic acid]
300 to 1000 nM | CN(C[C@H](O)CNC(C)(C)Cc1ccc2ccccc2c1)S(=O)(=O)Cc1cccc(-c2ccc(C=CC(=O)O)cc2)c1 [Exp. 3-86, (R)-3-(3′-((N-(2-hydroxy-3-(2-methyl-1-(naphthalen-2-yl)propan-2-ylamino)propyl)-N-methylsulfamoyl)methyl)biphenyl-4-yl)acrylic acid]
≤ 300 nM | CN(C[C@H](O)CNC(C)(C)CCCc1ccccc1)S(=O)(=O)c1cc(-c2cccc(CCC(=O)O)c2)cc(C(F)(F)F)c1 [Exp. 9-55, (R)-3-(3′-(N-(2-hydroxy-3-(2-methyl-5-phenylpentan-2-ylamino)propyl)-N-methylsulfamoyl)-5′-(trifluoromethyl)biphenyl-3-yl)propionic acid]
300 to 1000 nM | Cc1ccc(-c2cccc(S(=O)(=O)N(C)C[C@H](O)CNC(C)(C)Cc3ccc4ccccc4c3)c2)cc1C(=O)O [Exp. 3-7, (R)-3′-(N-(2-hydroxy-3-(2-methyl-1-(naphthalen-2-yl)propan-2-ylamino)propyl)-N-methylsulfamoyl)-4-methylbiphenyl-3-carboxylic acid]
